{"source": "paper PMC11433825", "about": "“Bidentate Substrate Binding Mode in Oxalate Decarboxylase” (Molecules, 2024)", "key": {"[1]": {"target": "T1, Oxalate decarboxylase (OxDC) (Bacillus subtilis, UniProt O34714, W96F)", "T1 construct": "recombinant, C-terminal His6 tag kept, IPTG/heat-shock expression with MnCl2, Ni-NTA purified; Mn(II) in two cupin sites per subunit", "T1 sequence (O34714 whole entry W96F)": "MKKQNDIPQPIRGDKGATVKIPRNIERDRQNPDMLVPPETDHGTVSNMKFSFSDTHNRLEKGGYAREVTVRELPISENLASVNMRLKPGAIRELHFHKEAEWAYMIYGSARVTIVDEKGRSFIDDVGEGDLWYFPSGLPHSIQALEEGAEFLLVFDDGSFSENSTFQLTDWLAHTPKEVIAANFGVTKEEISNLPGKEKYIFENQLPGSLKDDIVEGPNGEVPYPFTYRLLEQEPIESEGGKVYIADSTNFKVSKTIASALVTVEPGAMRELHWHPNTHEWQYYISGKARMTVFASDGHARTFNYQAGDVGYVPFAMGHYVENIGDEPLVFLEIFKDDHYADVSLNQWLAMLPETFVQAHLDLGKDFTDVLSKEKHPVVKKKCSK", "assay": "X-band […] Mims ENDOR", "format": "binding", "details": "labelled compound (13C), 50 mM; citrate pH 5.0, 50% glycerol, 10 mM ascorbate, 5 uM DTPA; 5 K; bidentate to N-terminal active-site Mn(II)"}, "[2]": {"target": "T2, Oxalate decarboxylase (OxDC) (Bacillus subtilis, UniProt O34714)", "T2 construct": "recombinant, C-terminal His6 tag kept, IPTG/heat-shock expression with MnCl2, Ni-NTA purified; Mn(II) in two cupin sites per subunit", "assay": "X-band […] Mims ENDOR", "format": "binding", "details": "labelled compound (13C), 50 mM; Tris pH 8.5, 50% glycerol, 10 mM ascorbate, 5 uM DTPA; 5 K; bidentate to N-terminal active-site Mn(II)"}}, "note": "Counter-ions that a name gives are not always drawn.", "data": [{"smiles": "O=C(O)C(=O)O", "note": "[^13C-labeled oxalate]", "values": [{"measurement": "X-band 13C Mims ENDOR", "setting": "[1]", "result": "Mn(II) ion in the active site of the OxDC mutant W96F at low pH"}, {"measurement": "X-band 13C Mims ENDOR", "setting": "[2]", "result": "bidentate binding of oxalate in WT OxDC at high pH where the enzyme is inactive"}]}]}
